This passage reports IC50 results from patent publication US11339130B1 (Blade Therapeutics, Inc., priority 2016, dated 2022).

For assay [1], the system named is Calpain activity in SH-SY5Y cells (SBDP-150). The experiment in a line: SH-SY5Y Spectrin western blot assay (SBDP-150 breakdown product, A23187-induced). In kind it is cell-based. The conditions noted are these: Homo sapiens; SH-SY5Y cells, A23187-induced SBDP-150, western blot; read-out: SH-SY5Y Spectrin IC50. (In general: In western blotting, separated proteins are transferred to a membrane and probed.)

In the next assay the target is T1, Human Calpain 9/NS1 (Homo sapiens, UniProt O14815).
T1 sequence (O14815 1-690): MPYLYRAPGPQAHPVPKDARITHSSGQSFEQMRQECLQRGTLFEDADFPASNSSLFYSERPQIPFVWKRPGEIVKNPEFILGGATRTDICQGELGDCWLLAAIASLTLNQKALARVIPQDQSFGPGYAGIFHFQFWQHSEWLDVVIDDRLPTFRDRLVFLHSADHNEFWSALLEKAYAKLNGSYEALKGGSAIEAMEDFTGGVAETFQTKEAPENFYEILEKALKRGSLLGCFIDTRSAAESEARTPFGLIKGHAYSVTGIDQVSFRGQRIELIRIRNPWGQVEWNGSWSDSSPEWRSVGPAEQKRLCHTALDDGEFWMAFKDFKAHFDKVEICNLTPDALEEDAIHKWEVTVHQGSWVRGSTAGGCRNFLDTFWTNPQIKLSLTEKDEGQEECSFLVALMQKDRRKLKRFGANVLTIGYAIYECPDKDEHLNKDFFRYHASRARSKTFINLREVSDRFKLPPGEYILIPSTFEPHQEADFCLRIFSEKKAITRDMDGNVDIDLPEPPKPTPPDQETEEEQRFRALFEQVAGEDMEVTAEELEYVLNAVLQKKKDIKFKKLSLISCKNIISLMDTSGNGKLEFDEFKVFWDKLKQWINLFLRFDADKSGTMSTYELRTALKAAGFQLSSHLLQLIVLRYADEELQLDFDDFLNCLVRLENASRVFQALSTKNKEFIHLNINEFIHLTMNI
T1 sequence (P04632 1-268 partner): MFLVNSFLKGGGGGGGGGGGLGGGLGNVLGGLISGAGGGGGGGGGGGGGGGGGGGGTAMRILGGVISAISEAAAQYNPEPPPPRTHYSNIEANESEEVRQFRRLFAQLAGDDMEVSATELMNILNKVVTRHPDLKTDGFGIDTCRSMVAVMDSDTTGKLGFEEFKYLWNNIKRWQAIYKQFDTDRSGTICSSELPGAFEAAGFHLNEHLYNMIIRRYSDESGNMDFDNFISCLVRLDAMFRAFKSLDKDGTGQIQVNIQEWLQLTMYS
Briefly: Calpain inhibition continuous fluorescence (FRET) assay, Human Calpain 9/NS1. In kind it is biochemical. Particulars: read-out: Human Calpain 9/NS1 IC50. The method in brief:
(§1)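 Fluorescence increase from the cleaved 5-FAM/QXL 520 substrate, read at 490/520 nm, gave activity. Calcium was supplied with the substrate to activate the enzyme in situ after a 25C enzyme-inhibitor preincubation, and IC50s were fit from initial slopes.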

The test system of assay [2] is Calpain activity in SH-SY5Y cells. Briefly: SH-SY5Y + AMC fluorescence assay (Suc-LLVY-AMC substrate). The class given is cell-based. The conditions noted are these: read-out: SH-SY5Y + AMC IC50.
For the next assay, the target named is T2, Human Calpain 2/NS1 (Homo sapiens, UniProt P17655).
T2 sequence (P17655 1-700): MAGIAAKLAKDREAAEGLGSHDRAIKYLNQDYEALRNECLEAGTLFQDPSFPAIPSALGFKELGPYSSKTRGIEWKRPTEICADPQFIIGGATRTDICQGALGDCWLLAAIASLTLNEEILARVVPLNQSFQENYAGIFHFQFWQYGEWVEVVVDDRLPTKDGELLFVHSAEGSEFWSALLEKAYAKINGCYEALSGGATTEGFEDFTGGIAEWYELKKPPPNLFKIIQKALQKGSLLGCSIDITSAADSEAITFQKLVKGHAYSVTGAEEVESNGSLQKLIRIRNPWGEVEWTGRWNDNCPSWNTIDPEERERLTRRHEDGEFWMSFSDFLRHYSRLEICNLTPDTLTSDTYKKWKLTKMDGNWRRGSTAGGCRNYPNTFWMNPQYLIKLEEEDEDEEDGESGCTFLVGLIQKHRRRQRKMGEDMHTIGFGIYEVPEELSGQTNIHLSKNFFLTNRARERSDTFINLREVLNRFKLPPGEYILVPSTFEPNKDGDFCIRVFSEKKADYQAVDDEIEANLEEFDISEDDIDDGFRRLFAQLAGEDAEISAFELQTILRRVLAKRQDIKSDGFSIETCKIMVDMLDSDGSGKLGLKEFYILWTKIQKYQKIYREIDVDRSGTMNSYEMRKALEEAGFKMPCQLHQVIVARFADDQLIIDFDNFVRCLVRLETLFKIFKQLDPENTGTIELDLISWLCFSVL
T2 sequence (P04632 1-268 partner): T1 sequence (P04632 1-268 partner)
The experiment in a line: Calpain inhibition continuous fluorescence (FRET) assay, Human Calpain 2/NS1. In kind it is biochemical. Particulars: read-out: Human Calpain 2/NS1 IC50. The method in brief: as §1

Another assay concerns the target T3, Human Calpain 1/NS1 (Homo sapiens, UniProt P07384).
T3 sequence (P07384 1-714): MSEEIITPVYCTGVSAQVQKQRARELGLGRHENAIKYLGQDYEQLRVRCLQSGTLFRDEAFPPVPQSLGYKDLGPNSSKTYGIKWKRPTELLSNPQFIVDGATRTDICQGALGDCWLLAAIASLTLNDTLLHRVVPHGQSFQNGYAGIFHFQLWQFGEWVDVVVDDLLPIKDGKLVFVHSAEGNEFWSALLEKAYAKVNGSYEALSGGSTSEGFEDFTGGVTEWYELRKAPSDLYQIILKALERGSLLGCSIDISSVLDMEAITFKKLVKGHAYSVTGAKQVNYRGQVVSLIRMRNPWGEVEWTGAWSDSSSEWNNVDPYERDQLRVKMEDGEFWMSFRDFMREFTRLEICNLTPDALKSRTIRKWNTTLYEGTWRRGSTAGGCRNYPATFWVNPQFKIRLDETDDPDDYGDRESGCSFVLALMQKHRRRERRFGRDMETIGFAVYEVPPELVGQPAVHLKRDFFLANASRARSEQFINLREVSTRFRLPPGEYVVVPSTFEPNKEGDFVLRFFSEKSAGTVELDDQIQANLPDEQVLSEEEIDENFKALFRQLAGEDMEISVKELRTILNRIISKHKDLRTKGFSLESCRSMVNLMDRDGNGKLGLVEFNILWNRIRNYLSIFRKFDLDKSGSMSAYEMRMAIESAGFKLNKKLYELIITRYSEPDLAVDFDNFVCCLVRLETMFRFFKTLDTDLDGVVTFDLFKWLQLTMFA
T3 sequence (P04632 1-268 partner): T1 sequence (P04632 1-268 partner)
The experiment in a line: Calpain inhibition continuous fluorescence (FRET) assay, Human Calpain 1/NS1. The conditions noted are these: read-out: Human Calpain 1/NS1 IC50. In kind it is biochemical. The method in brief:
as §1

Turning to `NC(=O)C(=O)C(Cc1ccccc1)NC(=O)c1nsnc1-c1ccccn1` (centres unmarked) [Compound 373, N-(4-amino-3,4-dioxo-1-phenylbutan-2-yl)-4-(pyridin-2-yl)-1,2,5-thiadiazole-3-carboxamide], the IC50 in assay [1] was less than 10 µM; on Human Calpain 9/NS1, less than 3 µM; in assay [2], less than 10 µM; on Human Calpain 2/NS1, less than 3 µM; at Human Calpain 1/NS1, less than 3 µM.
With `NC(=O)C(=O)C(Cc1ccccc1)NC(=O)c1nsnc1-c1ccncn1` (centres unmarked) [Compound 374, N-(4-amino-3,4-dioxo-1-phenylbutan-2-yl)-4-(pyrimidin-4-yl)-1,2,5-thiadiazole-3-carboxamide], the IC50 in assay [1] is less than 10 µM; on Human Calpain 9/NS1, less than 3 µM; in assay [2], less than 10 µM; on Human Calpain 2/NS1 it was less than 3 µM; at Human Calpain 1/NS1, less than 3 µM.
As to `Cc1c(F)cccc1-c1nsnc1C(=O)NC(Cc1ccccc1)C(=O)C(N)=O` (centres unmarked) [Compound 375, N-(4-amino-3,4-dioxo-1-phenylbutan-2-yl)-4-(3-fluoro-2-methylphenyl)-1,2,5-thiadiazole-3-carboxamide], the IC50 was less than 10 µM in assay [1]; less than 3 µM at Human Calpain 9/NS1; less than 10 µM in assay [2]; less than 3 µM at Human Calpain 2/NS1; less than 3 µM at Human Calpain 1/NS1.
In the case of `NC(=O)C(=O)[C@H](Cc1ccccc1)NC(=O)c1nsnc1-c1ccccc1` [Compound 376, (S)—N-(4-amino-3,4-dioxo-1-phenylbutan-2-yl)-4-phenyl-1,2,5-thiadiazole-3-carboxamide], the IC50 in assay [1] was less than 10 µM; at Human Calpain 9/NS1 it was less than 3 µM; in assay [2], less than 10 µM; at Human Calpain 2/NS1, less than 3 µM; on Human Calpain 1/NS1, less than 3 µM.
For the compound `NC(=O)C(=O)C(Cc1ccccc1)NC(=O)c1nsnc1-c1cccnc1` (centres unmarked) [Compound 377, N-(4-amino-3,4-dioxo-1-phenylbutan-2-yl)-4-(pyridin-3-yl)-1,2,5-thiadiazole-3-carboxamide], the IC50 in assay [1] is less than 10 µM; on Human Calpain 9/NS1, less than 3 µM; in assay [2] it was 10 to 25 µM; at Human Calpain 2/NS1, less than 3 µM; on Human Calpain 1/NS1, less than 3 µM.
As to `NC(=O)C(=O)C(Cc1ccccc1)NC(=O)c1nsnc1-c1ccc2c(c1)C(=O)N(Cc1ccccc1)C2` (centres unmarked) [Compound 378, N-(4-amino-3,4-dioxo-1-phenylbutan-2-yl)-4-(2-benzyl-3-oxoisoindolin-5-yl)-1,2,5-thiadiazole-3-carboxamide], the IC50 is less than 10 µM in assay [1]; less than 3 µM on Human Calpain 9/NS1; more than 25 µM in assay [2]; less than 3 µM on Human Calpain 2/NS1; less than 3 µM at Human Calpain 1/NS1.
As for `NC(=O)C(=O)[C@@H](Cc1ccccc1)NC(=O)c1cn(C(F)F)nc1-c1ccccc1` [Compound 380, (R)—N-(4-amino-3,4-dioxo-1-phenylbutan-2-yl)-1-(difluoromethyl)-3-phenyl-1H-pyrazole-4-carboxamide], the IC50 in assay [1] was less than 10 µM; on Human Calpain 9/NS1, less than 3 µM; in assay [2] it was less than 10 µM; on Human Calpain 2/NS1, less than 3 µM; at Human Calpain 1/NS1, less than 3 µM.
For `NC(=O)C(=O)C(Cc1ccccc1)NC(=O)c1cn(C(F)F)nc1-c1cccc(F)c1` (centres unmarked) [Compound 381, N-(4-amino-3,4-dioxo-1-phenylbutan-2-yl)-1-(difluoromethyl)-3-(3-fluorophenyl)-1H-pyrazole-4-carboxamide], the IC50 was less than 10 µM in assay [1]; less than 3 µM at Human Calpain 9/NS1; less than 10 µM in assay [2]; less than 3 µM on Human Calpain 2/NS1; less than 3 µM on Human Calpain 1/NS1.
`Cc1ccccc1-c1nn(C(F)F)cc1C(=O)NC(Cc1ccccc1)C(=O)C(N)=O` (centres unmarked) [Compound 382, N-(4-amino-3,4-dioxo-1-phenylbutan-2-yl)-1-(difluoromethyl)-3-(o-tolyl)-1H-pyrazole-4-carboxamide]: the IC50 was 10 to 25 µM in assay [1]; less than 3 µM on Human Calpain 9/NS1; less than 10 µM in assay [2]; less than 3 µM on Human Calpain 2/NS1; less than 3 µM at Human Calpain 1/NS1.
With `NC(=O)C(=O)C(Cc1ccccc1)NC(=O)c1cn(C(F)F)nc1-c1ccccc1F` (centres unmarked) [Compound 383, N-(4-amino-3,4-dioxo-1-phenylbutan-2-yl)-1-(difluoromethyl)-3-(2-fluorophenyl)-1H-pyrazole-4-carboxamide], the IC50 is less than 10 µM in assay [1]; less than 3 µM at Human Calpain 9/NS1; less than 10 µM in assay [2]; less than 3 µM at Human Calpain 2/NS1; less than 3 µM at Human Calpain 1/NS1.
Take `COc1cccc(-c2nn(C(F)F)cc2C(=O)NC(Cc2ccccc2)C(=O)C(N)=O)c1` (centres unmarked) [Compound 384, N-(4-amino-3,4-dioxo-1-phenylbutan-2-yl)-1-(difluoromethyl)-3-(3-methoxyphenyl)-1H-pyrazole-4-carboxamide]: the IC50 in assay [1] is less than 10 µM; on Human Calpain 9/NS1 it was less than 3 µM; in assay [2] it was less than 10 µM; at Human Calpain 2/NS1 it was less than 3 µM; on Human Calpain 1/NS1 it was less than 3 µM.
In the case of `COc1ccc(C[C@H](NC(=O)c2oc(C)nc2-c2ccccc2)C(=O)C(N)=O)cc1` [Compound 385, (S)—N-(4-amino-1-(4-methoxyphenyl)-3,4-dioxobutan-2-yl)-2-methyl-4-phenyloxazole-5-carboxamide], the IC50 is less than 10 µM in assay [1]; less than 3 µM on Human Calpain 9/NS1; more than 25 µM in assay [2]; less than 3 µM on Human Calpain 2/NS1; less than 3 µM at Human Calpain 1/NS1.
Turning to `Cc1nc(-c2ccccc2)c(C(=O)N[C@@H](CCc2ccccc2)C(=O)C(N)=O)o1` [Compound 386, (S)—N-(1-amino-1,2-dioxo-5-phenylpentan-3-yl)-2-methyl-4-phenyloxazole-5-carboxamide], the IC50 in assay [1] is more than 25 µM; at Human Calpain 9/NS1, less than 3 µM; in assay [2], 10 to 25 µM; on Human Calpain 2/NS1, less than 3 µM; on Human Calpain 1/NS1 it was less than 3 µM.
